According to US20040028749A1, “Treating inflammation and associated complications” (priority 2000, published 2004):

How the values were obtained:
tracheal rings = assay: NO-mediated relaxation of preconstricted tracheal rings; design: species or system rat; conditions: absence of peroxidases
Description: Normal rats were sacrificed and their trachea removed. Under the dissecting microscope, each trachea was freed of adventitia and fat tissue. A cylindrical airway segment of 3 mm length was isolated from the midtrachea of each animal and placed in a modified Krebs-Henseleit (KH) solution of the following composition (mM): NaCl, 118.2; NaHCO3, […], 4.6; KH2PO4, 1.2; MgSO4, 1.2; CaCl2 and dextrose, […], with a pH adjusted to 7.4. The solution was continuously aerated with 5% […] balanced with O2. […] Generated forces were continuously monitored and recorded on a rectilinear chart recorder. […]
A cumulative concentration-response curve to bethanecol (3×10^−8 to 10^−3 M) was obtained for each cylinder. The concentration of bethanecol that elicited 50-75% of maximal response (ED 50-75) was determined. […] The percent relaxation from the precontracted state was calculated for each cylinder. The percent relaxation in response to EFS was calculated from the reduction in tension (in grams) in relation to baseline tension in the precontracted state, each tracheal segment serving as its own control (before and after EFS exposure). […]
The effect of peroxidases on the concentration dependence of NO-mediated relaxation of preconstricted tracheal rings was quantified. […]

EPO = molecular target: T1, EPO (Sus scrofa, UniProt P80550); assay: Stopped-flow kinetics of NO with EPO compounds I and II; type: biochemical; conditions: 10 μM H2O2
T1 construct: from tissue; host or cells: porcine whole blood (leukocytes/eosinophils)
T1 sequence (P80550 143-704): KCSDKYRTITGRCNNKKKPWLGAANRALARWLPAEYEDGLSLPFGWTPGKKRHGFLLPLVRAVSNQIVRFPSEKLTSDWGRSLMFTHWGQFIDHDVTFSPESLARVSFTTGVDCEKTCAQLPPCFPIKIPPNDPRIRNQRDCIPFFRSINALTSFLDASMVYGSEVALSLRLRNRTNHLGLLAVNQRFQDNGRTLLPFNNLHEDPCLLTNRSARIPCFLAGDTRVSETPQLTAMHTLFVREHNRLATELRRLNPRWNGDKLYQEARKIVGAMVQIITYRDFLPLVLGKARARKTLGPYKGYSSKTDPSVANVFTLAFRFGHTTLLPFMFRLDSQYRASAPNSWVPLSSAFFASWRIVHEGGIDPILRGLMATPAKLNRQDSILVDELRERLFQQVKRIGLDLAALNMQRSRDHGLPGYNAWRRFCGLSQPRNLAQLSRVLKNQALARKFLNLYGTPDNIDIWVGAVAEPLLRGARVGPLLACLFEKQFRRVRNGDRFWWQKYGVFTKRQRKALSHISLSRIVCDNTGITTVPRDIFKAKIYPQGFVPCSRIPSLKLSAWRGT
Description: […] EPO was isolated from porcine whole blood obtained fresh at the slaughterhouse as described by Jorg et al. (1982) Biochim Biophys Acta 701:185-191. EPO was assayed by guaiacol oxidation (see Klebanoff et al. (1984) Methods Enzymol. 105:399-403). […] The concentration of the MPO dimer was calculated as half the indicated concentration of heme-like chromophore. Bovine LPO was obtained from Worthington Biochemistry Corporation (Lakewood, N.J.) and used without further purification.
Stopped-flow spectroscopy was used to investigate how NO interacts with intermediate forms of EPO and LPO during steady-state catalysis. […] The time courses for the formation and decay of compound II of both EPO and LPO in the absence of NO were examined by monitoring the absorbance change at 445 nm for EPO and at 430 nm for LPO. For both enzymes, the changes in absorbance that took place in the first 2 seconds of the reactions are shown and are attributed to the buildup of compound II. […] The subsequent decreases in absorbance at 455 and 430 nm observed for both enzymes were also fit to a single-exponential function with a rate constant of 0.005 s^−1 for EPO and 0.0005 s^−1 for LPO. […]
The addition of NO to reaction mixtures of EPO or LPO results in dramatic effects on the rates of compound II buildup, duration, and decay, as assessed by stopped-flow spectroscopy. […]

## [N]=O [NO, nitric oxide]
Tracheal rings
  NO concentration at which relaxation reached a maximum: ~4 µM
EPO
  enhancement of rate of EPO compound II accumulation: ~25 fold
